Data reported in patent publication US20240408170A1, “COMPOSITION FOR DECOMPOSITION OF TRYPSIN OR TMPRSS2” (Riken, priority 2021, published 2024).

Tests used:
[1] = biological target: T1, recombinant mouse PRSS2 (Mus musculus, UniProt P07146); assay: Trypsin decomposition in vitro by bacteria (western blot); type: biochemical
T1 construct: purchased Sino Biological, Inc. 50383-M08H
T1 sequence (P07146 24-246): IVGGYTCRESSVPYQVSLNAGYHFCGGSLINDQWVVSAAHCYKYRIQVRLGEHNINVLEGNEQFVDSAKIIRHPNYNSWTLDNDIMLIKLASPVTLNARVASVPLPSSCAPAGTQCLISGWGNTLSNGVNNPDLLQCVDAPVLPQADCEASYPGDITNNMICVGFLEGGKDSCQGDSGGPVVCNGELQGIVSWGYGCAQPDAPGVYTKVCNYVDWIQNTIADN
Protocol: (§1) Mouse faecal samples were suspended and diluted 50-fold with phosphate buffered saline (PBS) to which a protease inhibitor cocktail (Roche) was added. Subsequently, the suspended sample was centrifuged at 15,000×g for 10 minutes at 4° C., and the supernatant was subjected to western blot. Mouse pancreatic tissue was rapidly frozen in liquid nitrogen. Proteins were extracted by TRIzol Reagent (Thermo Fisher Scientific K.K.), and the final protein concentration was adjusted to 4 μg/μL. For SDS-PAGE and blotting, Novex (registered trademark) NuPAGE (registered trademark) SDS-PAGE Gel system (Thermo Fisher Scientific K.K.) and iBlot™ 2 Dry Blotting System (Thermo Fisher Scientific K.K.) were used according to the manufacturer's instructions.
(§2) The bacteria cultured overnight were incubated with recombinant mouse trypsin (final concentration: 1 μg/mL) for 1 hour or with human trypsin (final concentration: 20 μg/mL) for 4 hours. Recombinant trypsin isoforms used were as follows: recombinant mouse PRSS2 (50383-M08H, Sino Biological, Inc.), recombinant human PRSS1 (LS-G135640), recombinant human PRSS2 (LS-G20167), and recombinant human PRSS3 (His-tag) (NBP2-52220).
In some experiments, recombinant mouse PRSS2 was first treated with one of the following trypsin inhibitors for 30 minutes before incubation with a P. clara culture solution. AEBSF (Sigma-Aldrich, final concentration: 2 mM), Leupeptin (Sigma-Aldrich, final concentration: 100 μM), and TLCK (Abcam plc., final concentration: 100 μM).
In some experiments, P. clara was cultured overnight in the presence of Tunicamycin (Sigma-Aldrich, final concentration: 10 μg/mL), 2-Fluoro-L-fucose (Cayman Chemical Company, final concentration: 250 μM), or the corresponding DMSO control, before incubation with recombinant mouse PRSS2.
In the experiment of evaluating the effect of Ca^2+, P. clara was cultured in a low Ca^2+ mGAM medium supplemented with or without 1 mM of Ca^2+, before incubation with recombinant mouse PRSS2. In the experiment in which the supernatant of P. clara was used, P. clara cultured overnight was filtered through a sterilization filter unit formed using a PVDF film having a pore size of 0.22 μm.

[2] = biological target: T2, recombinant human PRSS1 (Homo sapiens, UniProt P07477); assay: Human trypsin decomposition in vitro by P. clara (western blot); type: biochemical
T2 construct: purchased LS-G135640
Protocol: as §1, §2

[3] = biological target: T3, recombinant human PRSS2 (Homo sapiens, UniProt P07478); assay: as above; type: biochemical
T3 construct: purchased LS-G20167
T3 sequence (P07478 24-247): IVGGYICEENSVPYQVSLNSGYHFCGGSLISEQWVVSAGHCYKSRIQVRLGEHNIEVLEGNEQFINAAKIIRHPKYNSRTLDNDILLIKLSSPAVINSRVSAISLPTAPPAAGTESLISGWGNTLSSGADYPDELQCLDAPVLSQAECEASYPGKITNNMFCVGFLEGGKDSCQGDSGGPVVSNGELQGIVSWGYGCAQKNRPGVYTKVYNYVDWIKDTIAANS
Protocol: as §1, §2

[4] = biological target: T1, recombinant mouse PRSS2; assay: Binding of Alexa Fluor 488-labeled rmPRSS2 to the surface of bacteria (confocal microscope)
Protocol: Recombinant mouse PRSS2 was labeled with Alexa Fluor™ 488 using an Alexa Fluor™ 488 Antibody Labeling Kit (Δ20181, Thermo Fisher Scientific K.K.), and was pretreated with an AEBSF inhibitor (150 μg/mL rmPRSS2 with 20 mM AEBSF).
Mouse PRSS2 labeled with Alexa Fluor™ 488 was incubated in an anaerobic chamber for 20 minutes with bacteria cultured at a final concentration of 5 μg/mL. The mixture was centrifuged, washed once with PBS, and then resuspended in PBS. A Leica TCS SP8 confocal microscope was used for capturing a confocal image.

[5] = system: FITC-casein substrate; assay: Protease activity assay (cleavage of FITC-labeled casein); type: biochemical
Protocol: The protease activity of the P. clara culture solution, the P. clara culture solution supernatant, the recombinant 00502 protein, and the recombinant 005009 protein were measured using Pierce™ Fluorescent Protease Assay Kit (#23266, Thermo Fisher Scientific K.K.) according to the manufacturer's protocol.
Using PerkinElmer 2030 Multilabel Reader equipped with an excitation filter and a fluorescence filter of fluorescein (485/538 nm), an increase in total fluorescence due to digestion of the FITC-casein substrate to smaller fluorescein-labeled fragments was detected. The protease activity was measured as a change in relative fluorescence units (RFUs).

[6] = biological target: T4, trypsin (Mus musculus, UniProt P07146); assay: Substrate specificity: ex vivo incubation of GF mouse cecal contents with P. clara, peptidome analysis by LC-MS; type: biochemical; conditions: 7614 peptides derived from 276 proteins, cecal contents of GF mice
T4 construct: the anionic trypsin protease was abundantly present in the cecal contents and the faeces; from tissue; host or cells: faeces and cecal contents of germ-free / gnotobiotic mice
T4 sequence (P07146 24-246): T1 sequence (P07146 24-246)
Protocol: An acetonitrile (ACN) containing 0.1% trifluoroacetic acid (TFA) was added to the cecal contents and dried with a centrifugal evaporator. Acetone was added to the dried sample, and a low-molecular-weight compound that was soluble in lipids was extracted with a water bath type sonicator. Thereafter, centrifugation was performed at 15,000×g for 15 minutes at 4° C.
After removing the supernatant, 70% ACN-HCl was added to the precipitate, and the peptides were redissolved in a water bath type sonicator. Thereafter, centrifugation was performed at 15,000×g for 15 minutes at 4° C. Subsequently, the supernatant was transferred to a new tube and dried with a centrifugal evaporator. Subsequently, the dried sample was redissolved in 100 mM Tris-HCl containing a protease inhibitor, and then treated with 10 mM dithiothreitol at 50° C. for 30 minutes. Thereafter, alkylation was carried out with 30 mM iodoacetamide for 30 minutes at room temperature in a dark place. Thereafter, acidification was carried out with 0.5% trifluoroacetic acid (final concentration). The acidified sample was desalted with MonoSpin C18 (GL Sciences Inc.). […]
The peptides eluted from the column were analyzed by DDA-MS using Q Exactive HF-X (Thermo Fisher Scientific K.K.). […]

For “Paraprevotella clara [P. clara (strain ID: 1C4)]”, the “reaction rate of trypsin decomposition by P. clara” value [1] was “gradually occurs stoichiometrically”, the “dependence of P. clara-mediated trypsin decomposition on divalent cations” value ([1]; Ca2+) was “occurred only in the presence of a sufficient amount of divalent cations” and the “decomposition of rmPRSS2 (western blot)” value ([1]; bacteria or culture supernatant incubated with recombinant mouse trypsin) was “reduced trypsin”. The “decomposition of human trypsin PRSS1 (western blot)” value [2] was “can promote the reduction”, the “decomposition of human trypsin PRSS2 (western blot)” value [3] was “can promote the reduction” and the “binding of rmPRSS2 to the surface of bacteria” value [4] was “accumulate on the surface”. For the same substance, the “protease activity (change in relative fluorescence units)” value [5] was “no proteolytic activity was detected” and the “substrate specificity: proteins with increase in peptide concentration over time” value [6] was “trypsin was only one protein that exhibited a pattern of a clear increase in peptide concentration over time”.
